Assay results published in patent US11780839B2, “Compounds for treating Huntington's disease” (PTC THERAPEUTICS, INC., priority 2018, dated 2023).

Tested on: Endogenous Huntingtin Protein
Assay: Endogenous Huntingtin Protein Assay (ELISA-based Meso Scale Discovery electrochemiluminescence)
Type: cell-based
Details: MSD electrochemiluminescence, Table 1
Description: Compounds of Formula (I) or Formula (II) were tested using the Meso Scale Discovery (MSD) Assay provided in International Application No. PCT/US2016/066042, filed on Dec. 11, 2016 and claiming priority to U.S. Provisional Application 62/265,652 filed on Dec. 10, 2015, the entire contents of which are incorporated herein by reference.
The Endogenous Huntingtin Protein assay used in Example 1 was developed using the ELISA-based MSD electrochemiluminescence assay platform.
Endogenous Huntingtin Protein Assay
Meso Scale Discovery (MSD) 96-well or 384-well plates were coated overnight at 4° C. with MW1 (expanded polyglutamine) or MAB2166 monoclonal antibody (for capture) at a concentration of 1 μg/mL in PBS (30 μL per well). Plates were then washed three times with 300 μL wash buffer (0.05% Tween-20 in PBS) and blocked (100 μL blocking buffer; 5% BSA in PBS) for 4-5 hours at room temperature with rotational shaking and then washed three times with wash buffer.
Samples (25 μL) were transferred to the antibody-coated MSD plate and incubated overnight at 4° C. After removal of the lysates, the plate was washed three times with wash buffer, and 25 μL of #5656S (Cell signaling; rabbit monoclonal) secondary antibody (diluted to 0.25 μg/mL in 0.05% Tween-20 in blocking buffer) was added to each well and incubated with shaking for 1 Hour at room temperature. Following incubation with the secondary antibody, the wells were rinsed with wash buffer after which 25 μL of goat anti-rabbit SULFO TAG secondary detection antibody (required aspect of the MSD system) (diluted to 0.25 μg/mL in 0.05% Tween-20 in blocking buffer) was added to each well and incubated with shaking for 1 hour at room temperature. After rinsing three times with wash buffer, 150 μL of read buffer T with surfactant (MSD) were added to each empty well, and the plate was imaged on a SI 6000 imager (MSD) according to manufacturers' instructions provided for 96- or 384-well plates.

Compound	IC50 [nM]
2-(3-{[(3S,4S)-3-fluoro-2,2,6,6-tetramethylpiperidin-4-yl]amino}-1,2,4-triazin-6-yl)-5-(1H-imidazol-1-yl)phenol [Cpd 238]	≤ 100
2-{3-{[(2S)-2-aminopropyl](methyl)amino}-1,2,4-triazin-6-yl)-5-(1H-pyrazol-4-yl)phenol [Cpd 190]	≤ 100
5-(5-fluoro-1H-pyrazol-4-yl)-2-{6-[methyl(2,2,6,6-tetramethylpiperidin-4-yl)amino]-1,2,4-triazin-3-yl}phenol [Cpd 191]	≤ 100
5-[1-(^2H3)methyl-1H-pyrazol-4-yl]-2-{6-[methyl(2,2,6,6-tetramethylpiperidin-4-yl)amino]-1,2,4-triazin-3-yl}phenol [Cpd 192]	100 to 500
Cc1cnc(-c2ccc(-c3cnc(N(C)C4CC(C)(C)NC(C)(C)C4)nn3)c(O)c2)o1 [Cpd 1, 5-(5-methyl-1,3-oxazol-2-yl)-2-{3-[methyl(2,2,6,6-tetramethylpiperidin-4-yl)amino]-1,2,4-triazin-6-yl}phenol]	> 500
COc1cc(-c2ccc(-c3cnc(N(C)C4CC(C)(C)NC(C)(C)C4)nn3)c(O)c2)ncn1 [Cpd 2, 5-(6-methoxypyrimidin-4-yl)-2-{3-[methyl(2,2,6,6-tetramethylpiperidin-4-yl)amino]-1,2,4-triazin-6-yl}phenol]	≤ 100
COc1cc(-c2ccc(-c3cnc(N(C)C4CC(C)(C)NC(C)(C)C4)nn3)c(O)c2)ccn1 [Cpd 3, 5-(2-methoxypyridin-4-yl)-2-{3-[methyl(2,2,6,6-tetramethylpiperidin-4-yl)amino]-1,2,4-triazin-6-yl}phenol]	≤ 100
CN(c1ncc(-c2ccc(-c3c[nH]nn3)cc2O)nn1)C1CC(C)(C)NC(C)(C)C1 [Cpd 4, 2-{3-[methyl(2,2,6,6-tetramethylpiperidin-4-yl)amino]-1,2,4-triazin-6-yl}-5-(1H-1,2,3-triazol-4-yl)phenol]	≤ 100
CN(c1ncc(-c2ccc(-c3ccnc(O)c3)cc2O)nn1)C1CC(C)(C)NC(C)(C)C1 [Cpd 5, 4-(3-hydroxy-4-{3-[methyl(2,2,6,6-tetramethylpiperidin-4-yl)amino}-1,2,4-triazin-6-yl}phenyl)pyridin-2-ol]	≤ 100
Cc1n[nH]cc1-c1ccc(-c2cnc(N(C)C3CC(C)(C)NC(C)(C)C3)nn2)c(O)c1 [Cpd 6, 5-(3-methyl-1H-pyrazol-4-yl)-2-{3-[methyl(2,2,6,6-tetramethylpiperidin-4-yl)amino]-1,2,4-triazin-6-yl}phenol]	≤ 100
CN(c1ncc(-c2ccc(-c3ncco3)cc2O)nn1)C1CC(C)(C)NC(C)(C)C1 [Cpd 7, 2-{3-[methyl(2,2,6,6-tetramethylpiperidin-4-yl)amino]-1,2,4-triazin-6-yl}-5-(1,3-oxazol-2-yl)phenol]	≤ 100
CN(c1ncc(-c2ccc(-c3ccncc3)cc2O)nn1)C1CC(C)(C)NC(C)(C)C1 [Cpd 8, 2-{3-[methyl(2,2,6,6-tetramethylpiperidin-4-yl)amino]-1,2,4-triazin-6-yl}-5-(pyridin-4-yl)phenol]	≤ 100
Cc1cc(-c2ccc(-c3cnc(N(C)C4CC(C)(C)NC(C)(C)C4)nn3)c(O)c2)ccn1 [Cpd 9, 5-(2-methylpyridin-4-yl)-2-{3-[methyl(2,2,6,6-tetramethylpiperidin-4-yl)amino]-1,2,4-triazin-6-yl}phenol]	≤ 100
Cc1cn(-c2ccc(-c3cnc(N(C)C4CC(C)(C)NC(C)(C)C4)nn3)c(O)c2)cn1 [Cpd 10, 5-(4-methyl-1H-imidazol-1-yl)-2-{3-[methyl(2,2,6,6-tetramethylpiperidin-4-yl)amino]-1,2,4-triazin-6-yl}phenol]	≤ 100
CC1(C)CC(Oc2ncc(-c3ccc(-c4cn[nH]c4)cc3O)nn2)CC(C)(C)N1 [Cpd 11, 5-(1H-pyrazol-4-yl)-2-{3-[(2,2,6,6-tetramethylpiperidin-4-yl)oxy]-1,2,4-triazin-6-yl}phenol]	≤ 100
